Laboratory results published in publication PMC4844700, “Rifampin phosphotransferase is an unusual antibiotic resistance kinase” (Nature Communications, 2016).

Tests used:
[1] = target: T1, RPH-Lm (rifampin phosphotransferase) (Listeria monocytogenes, UniProt A0A0X1KHF9); assay: SAXS, ensemble optimization; assay type: binding; details: Mg2+; 20 mM Hepes pH 7.5, 100 mM KCl; 10 °C; 10-fold molar excess; non-hydrolysable ATP analogue
T1 construct: full-length from E. coli; crystals and SAXS: His6-tag removed by TEV (pMCSG53 for crystals); kinetics: pET19Tb:rph-Lm; monomer; ATP-grasp 1-314, RIF-BD 327-754, swivel 767-865, catalytic His825
T1 sequence (A0A0X1KHF9 whole entry): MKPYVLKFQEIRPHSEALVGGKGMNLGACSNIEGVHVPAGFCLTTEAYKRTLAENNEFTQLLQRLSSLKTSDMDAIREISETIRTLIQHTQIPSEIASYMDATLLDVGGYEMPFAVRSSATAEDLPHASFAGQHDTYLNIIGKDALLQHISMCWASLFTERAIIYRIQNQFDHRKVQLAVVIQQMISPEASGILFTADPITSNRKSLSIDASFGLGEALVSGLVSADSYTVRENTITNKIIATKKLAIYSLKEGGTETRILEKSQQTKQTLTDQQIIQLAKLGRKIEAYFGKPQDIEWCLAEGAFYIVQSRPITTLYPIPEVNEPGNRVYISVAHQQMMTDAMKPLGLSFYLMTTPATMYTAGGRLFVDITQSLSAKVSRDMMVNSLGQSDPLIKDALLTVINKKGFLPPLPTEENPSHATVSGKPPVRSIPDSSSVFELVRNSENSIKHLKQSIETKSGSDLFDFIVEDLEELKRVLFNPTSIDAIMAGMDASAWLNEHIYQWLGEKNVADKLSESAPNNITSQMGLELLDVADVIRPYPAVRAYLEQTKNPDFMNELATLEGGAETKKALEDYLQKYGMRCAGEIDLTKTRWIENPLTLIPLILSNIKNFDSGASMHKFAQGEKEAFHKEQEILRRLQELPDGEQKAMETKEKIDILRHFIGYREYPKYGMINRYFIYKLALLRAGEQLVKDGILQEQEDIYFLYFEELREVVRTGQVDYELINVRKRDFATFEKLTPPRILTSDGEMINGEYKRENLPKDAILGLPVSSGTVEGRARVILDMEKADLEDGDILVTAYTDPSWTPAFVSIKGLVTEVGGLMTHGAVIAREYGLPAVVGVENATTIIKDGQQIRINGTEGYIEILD

[2] = target: T1, RPH-Lm (rifampin phosphotransferase); assay: X-ray crystallography; details: crystallized with 5 mM RIF and 5 mM ATP; RIF-binding domain; 2.85 Å
[3] = target: T1, RPH-Lm (rifampin phosphotransferase); assay: X-ray crystallography (SAD); details: Se-Met protein; 5 mM RIF; pH 6; RIF-binding domain; 2.70 Å
[4] = tested on: CO[C@H]1/C=C/O[C@@]2(C)Oc3c(C)c(O)c4c(O)c(c(/C=N/N5CCN(C)CC5)c(O)c4c3C2=O)NC(=O)/C(C)=C\C=C\[C@H](C)[C@H](O)[C@@H](C)[C@@H](O)[C@@H](C)[C@H](OC(C)=O)[C@@H]1C; assay: purified protein; details: ATP at five times its Km, 50 mM Hepes pH 7.5, 5 mM MgCl2, 40 mM NH4Cl, 25 °C, 11.3 μM enzyme

## Nc1ncnc2c1ncn2[C@@H]1O[C@H](COP(=O)(O)OP(=O)(O)NP(=O)(O)O)[C@@H](O)[C@H]1O [AMP-PnP]
[1]
  SAXS, ensemble optimization: RPH-Lm bound to either analogue showed an increase in the ATP-grasp engaged population

## Nc1ncnc2c1ncn2[C@@H]1O[C@H](COP(=O)(O)CP(=O)(O)OP(=O)(O)O)[C@@H](O)[C@H]1O [AMP-cPP]
[1]
  SAXS, ensemble optimization: RPH-Lm bound to either analogue showed an increase in the ATP-grasp engaged population

## CO[C@H]1/C=C/O[C@@]2(C)Oc3c(C)c(O)c4c(O)c(c(/C=N/N5CCN(C)CC5)c(O)c4c3C2=O)NC(=O)/C(C)=C\C=C\[C@H](C)[C@H](OP(=O)(O)O)[C@@H](C)[C@@H](O)[C@@H](C)[C@H](OC(C)=O)[C@@H]1C [RIF-P]
[2]
  X-ray crystallography: 5FBU (RPH-Lm·RIF-P)

## CO[C@H]1/C=C/O[C@@]2(C)Oc3c(C)c(O)c4c(O)c(c(/C=N/N5CCN(C)CC5)c(O)c4c3C2=O)NC(=O)/C(C)=C\C=C\[C@H](C)[C@H](O)[C@@H](C)[C@@H](O)[C@@H](C)[C@H](OC(C)=O)[C@@H]1C [RIF]
[3]
  X-ray crystallography (SAD): 5FBT (RPH-Lm·RIF)

## RPH-Lm (rifampin phosphotransferase) (Listeria monocytogenes serotype 4b str. F2365)
[4]
  Km: 0.57 ± 0.15 µM
  kcat: 2.25 ± 0.17 s⁻¹
  kcat/Km: 3.94e+06 M⁻¹ s⁻¹
